What was measured:
GcoA-F169A and GcoB = molecular target: T1, GcoA-F169A and GcoB (Amycolatopsis sp., UniProt P0DPQ7, F169A/H210Q); test: Uncoupling reactions: H2O2 by Amplex Red/HRP assay referenced to NADH consumed; assay type: biochemical
T1 construct: GST (N, cleaved yes); made in house; host or cells: E. coli Rosetta 2 (DE3)
Method: The ^a in Table 3 notes that 0.2 μM GcoA-F169A and GcoB were reacted with 100 μg catalase, 100 or 200 μM NADH, and 100 μM substrate in 25 mM HEPES, 50 mM NaCl, pH 7.5, 25° C., 210 μM O2. Endpoint analyses were done to quantify formaldehyde produced, which was then referenced to NADH consumed. The ^b in Table 3 notes that the same reaction done above was repeated to quantify H2O2 produced using the Amplex Red/HRP assay. The amount of hydrogen peroxide was then referenced to NADH consumed.
Detection of H2O2 via HRP and Amplex Red assay. A colorimetric assay involving horseradish peroxidase (HRP) and Amplex Red was used to quantify H2O2 in the reaction between GcoA-F169A GcoA/GcoB, NADH and guaiacol, syringol, or 3MC.
Detection of H2O2 via horseradish peroxidase (HRP) and Amplex Red assay. The reaction between 100 μM guaiacol or 3MC with 0.2 μM F169A/GcoB and 100 μM NADH in air-saturated buffer (25 mM HEPES, 50 mM NaCl, pH 7.5) was monitored continuously in a quartz cuvette, using the NADH consumption assay described above. The same thing was done for syringol, but with either 100 or 200 μM NADH. When there was no longer any change in the spectra, e.g., the reaction was completed, 100 μL was removed from the cuvette and pipetted into a 96-well microplate. A 5 mL solution containing 50 μL of 10 mM Amplex Red (prepared in DMSO and stored at −20° C.) and 100 μL of 10 U/mL HRP was made up in the above buffer. One hundred μL of this was added to each of the wells with each reaction sample. The plate was incubated in the dark at room temperature for 30 min, at which point the absorbance at 572 nm was recorded by a Varioskan Lux microplate reader (Thermo Scientific). The absorbance was compared to a standard curve with 0-100 μM H2O2 to quantify the amount of peroxide produced in the reactions.

GcoA-F169A [1] = molecular target: T2, GcoA-F169A (Amycolatopsis sp., UniProt P0DPQ7, F169A/H210Q); test: Substrate dissociation constant (KD) by UV/vis spin-state titration; assay type: binding
T2 construct: GST (N, cleaved yes); made in house; host or cells: E. coli Rosetta 2 (DE3)
Method: Guaiacol (FIG. 1A) caused the Soret peak (λ=417 nm) of GcoA-F169A to shift to 387 nm, indicating the conversion of a low-spin to a high-spin species. Syringol (FIG. 1B) caused the Soret peak (λ=417 nm) of GcoA-F169A to shift to 387 nm, indicating the conversion of a low-spin to a high-spin species. 3MC (FIG. 1C) caused the Soret peak (λ=417 nm) of GcoA-F169A to shift to 387 nm, indicating the conversion of a low-spin to a high-spin species. 0-60 μM substrate was titrated into a solution containing 3 μM GcoA-F169A and air-saturated buffer (25 mM HEPES, 50 mM NaCl, pH 7.5, 25° C.) and the spectra monitored until there was no more change, indicating saturation. The solution reached equilibrium prior to each substrate addition. […] Error bars represent ±1 standard deviation of two or more runs.
Zero to 60 μM of guaiacol, syringol, or 3MC in 0.5 or 1 μM aliquots, were titrated into a cuvette containing 3 μM F169A GcoA in 25 mM HEPES, 50 mM NaCl, pH 7.5. The spectrum after each substrate addition was recorded, beginning with no substrate bound. The solution reached equilibrium before the next addition. A difference spectrum was made to illustrate the shift from a low-spin aquo-heme complex to the high-spin substrate-bound complex (spectral shift from 417 nm to 388 nm). […] The absorbance at 388 nm (AbS388-417 nm) was plotted as a function of [substrate], yielding a quadratic curve that was fit to equation (5) to determine the KD.
Where L0, Et, KD, and ΔAbsmax are the ligand concentrations, total protein (subunit) concentration, the equilibrium dissociation constant, and the maximum AbS388-417nm, respectively. Reported values are the average of 2 or more measurements.

GcoA-F169A [2] = molecular target: T2, GcoA-F169A; test: Rate of NADH disappearance (UV/vis) with each substrate; assay type: biochemical; settings: GcoA-F169A with the named substrate
Method: To address whether guaiacol and/or syringol would serve as substrates of GcoA-F169A, the disappearance of NADH (UV/vis) and aromatic substrate (HPLC) was monitored over time (FIG. 1). The rates of organic substrate and NADH consumption were robust and the same within error, regardless of whether guaiacol or syringol was used (5.3±0.3 μM guaiacol s^−1 μmol GcoA-F169A^−1, 5.8±0.8 μM NADH s^−1 μmol GcoA-F169A-1; 4.1±0.3 μM syringol s^−1 μmol GcoA-F169A^−1, 5.1±0.8 μM NADH s^−1 μmol GcoA-F169A^−1).
Steady state kinetics of F169A. 0.2 μM each of F169A GcoA and GcoB were dissolved in air-saturated buffer (25 mM HEPES, 50 mM NaCl) in a cuvette at pH 7.5, 25° C. 100 μg/mL catalase was added to each reaction to capture any H2O2 formed during the uncoupled reaction. A saturating amount of NADH (≥5 KM, 300 μM) was added and a background rate of NADH oxidation in air (about 210 μM O2) recorded via continuous scanning of the UV/vis spectrum (Varian Cary 50). 20-300 μM guaiacol or syringol 2-20 mM stock dissolved in DMSO was added and the reaction was monitored via measurement of UV/vis spectra for several minutes. The initial velocity was determined by disappearance of the characteristic NADH absorbance at 340 nm ([…]=6.22 mM^−1 cm^−1). A plot of vi versus the concentration of guaiacol was fit to equation 4 to obtain kcat, KM, and kcat/KM. For specific activity determination, the above method was used but with saturating (300 μM) guaiacol, syringol, or 3-methoxycatechol (3MC), and in the presence of all F169 GcoA mutants (A, H, S, V, I, L). The linear portion of the concentration of NADH versus time was fit and referenced to the amount of GcoA used (0.2 μM). Reported values are the average of at least 3 measurements and reported errors are standard deviations. vi=Vmax[S]/(KM+[S]) Equation (4): […]

T1 sequence (P0DPQ7 whole entry F169A/H210Q): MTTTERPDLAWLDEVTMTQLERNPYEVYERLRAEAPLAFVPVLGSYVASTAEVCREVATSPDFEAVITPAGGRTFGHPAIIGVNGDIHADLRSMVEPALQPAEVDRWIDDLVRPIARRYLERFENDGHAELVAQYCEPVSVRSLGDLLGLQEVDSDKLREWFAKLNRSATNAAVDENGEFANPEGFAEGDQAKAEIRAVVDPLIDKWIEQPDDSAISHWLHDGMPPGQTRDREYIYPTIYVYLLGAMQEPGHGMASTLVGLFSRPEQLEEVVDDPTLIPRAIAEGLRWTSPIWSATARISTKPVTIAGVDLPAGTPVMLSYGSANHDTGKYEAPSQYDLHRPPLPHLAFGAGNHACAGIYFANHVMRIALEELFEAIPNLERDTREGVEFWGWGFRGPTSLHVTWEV
T2 sequence (P0DPQ7 whole entry F169A/H210Q): as above

Row | SMILES | % H2O2 produced (GcoA-F169A and GcoB; 100 μM substrate + 100 μM NADH) | Kd (GcoA-F169A [1]) | Rate of NADH consumption (UV/vis) (GcoA-F169A [2]) | % H2O2 produced (GcoA-F169A and GcoB; 100 μM substrate + 200 μM NADH)
1 | COc1cccc(O)c1O [3MC, 3-methoxycatechol] | 17 ± 0.2% | 9.5 ± 0.02 µM | 5.6±0.8 μM NADH s^−1 μmol GcoA-F169A^−1 | –
2 | COc1cccc(OC)c1O [syringol, 2,6-dimethoxyphenol] | 7.4 ± 0.03% | 1.7 ± 0.07 µM | 5.1±0.8 μM NADH s^−1 μmol GcoA-F169A^−1 | 7.9 ± 0.5%
3 | COc1ccccc1O [guaiacol, 2-methoxyphenol] | 3.7 ± 0.6% | 7.1 ± 0.1 µM | 5.8±0.8 μM NADH s^−1 μmol GcoA-F169A^−1 | –

Source: patent US11208642B2, “Microbial syringol utilization” (Alliance for Sustainable Energy, LLC, priority 2018, dated 2021)
